{"source": "patent US6303761A", "about": "“Triaminepentaacetic acid compound and paramagnetic metal complex prepared from using the compound as ligand” (Department of Health The Executive Yuan, Republic of China, priority 1999, dated 2001)", "key": {"[1]": {"assay": "Protonation constants of the organic ligands (potentiometric titration, program PKAS)", "format": "physicochemical", "conditions": "for pKa: aqueous me4nno3, 25.0 ± 0.1° C., aqueous Me4 NNO3, I = 0.10 mol dm^-3", "method": "The ionic strength was 0.10 mol dm^-3 Me4 NNO3 ((CH3)4 NNO3). […] The titrant used was 0.1 mol dm^-3 NaOH with a titration amount of 0.005 ml/time."}, "[2]": {"assay": "Selectivity constant of the ligand for Gd^3+ over Ca^2+", "format": "physicochemical"}, "[3]": {"assay": "Species distribution of the ligands at various pH values (SPE, SPEPLOT)", "format": "physicochemical", "conditions": "7.0×10^-3 mol dm^-3 system", "source_text": "The average difference between observed and calculated -log[H^+ ] was <0.04 throughout all titrations.\nWhen pH=7.0, the concentration of [H2 L]^3- is the maximum (97.5%). In the pH 3-5 range, the dominant species is the third protonated species [H3 L]^2-. When pH=3.7, the concentration of [H3 L]^2- is the maximum (87.75%). […] When pH=9.8, the concentration of [HL]^4- is the maximum (77.5%). In the pH 2-3 range, the dominant species is the fourth protonated species [H4 L]^-. When pH=2.3, the concentration of [H4 L]^- is the maximum (60.9%). In the pH range greater than 11, the dominant species is the deprotonated species [L]^5-.\nWhen pH=2.7, the concentration of [H4 L]^- is the maximum (55.9%). In the pH 3.5-7 range, the dominant species is the third protonated species [H3 L]^2-. When pH=5, the concentration of [H3 L]^2- is the maximum (97.7%). In the pH 7-9 range, the dominant species is the second protonated species [H2 L]^3-. When pH=8.1, the concentration of [H2 L]^3- is the maximum (86.5%). […] When pH=9.9, the concentration of [HL]^4- is the maximum (71.6%). In the pH range greater than 12, the dominant species is the deprotonated species [L]^5-. In the pH range less than 2, the dominant species is the totally protonated species [H5 L].\nWhen pH=2.8, the concentration of [H4 L]^- is the maximum (45.9%). In the pH 3.5-7.5 range, the dominant species is the third protonated species [H3 L]^2-. When pH=5.2, the concentration of [H3 L]^2- is the maximum (99.0%). In the pH 8-9.5 range, the dominant species is the second protonated species [H2 L]^3-. When pH=8.6, the concentration of [H2 L]^3- is the maximum (78.8%). In the pH 9.5-11 range, the dominant species is the first protonated species [HL]^4-. When pH=10.1, the concentration of [HL]^4- is the maximum (67.2%). In the pH range greater than 12, the dominant species is the deprotonated species [L]^5-. In the pH range less than 2, the dominant species is the totally protonated species [H5 L]."}, "[4]": {"format": "physicochemical"}, "[5]": {"assay": "Thermodynamic and conditional stability constants of the Cu^2+ complexes (potentiometric titration, program BEST)", "format": "physicochemical", "conditions": "25.0 ± 0.1° C., aqueous Me4 NNO3, I = 0.10 mol dm^-3", "method": "(§1) The pH electrode was calibrated using two standard buffer solutions with pH 7.0±0.05 and pH 4.0±0.05 respectively. The ionic strength was 0.10 mol dm^-3 Me4 NNO3 ((CH3)4 NNO3). […] The titrant used was 0.1 mol dm^-3 NaOH with a titration amount of 0.005 ml/time.\n(§2) (1) Direct Potentiometric Titration: The metal ion and ligand is mixed in 1:1 molar ratio.\n(§3) (2) Ligand-ligand Competition Titration: The metal ion, ligand, and EDTA is mixed in 1:1:1 molar ratio.\n(§4) M: metal ion, L: organic ligand, ML: metal complex The conditional stability constant is defined by equation (2): [formula]\n(§5) The relationship between the conditional stability constant and the thermodynamic stability constant is defined by equation (3): [formula]\n(§6) K2^H [H^+ ]^2 + . . . }^-1 =KthermαH"}, "pM value, Zn^2+": {"assay": "pM value, Zn^2+", "conditions": "pH 7.4, TL 1.1×10^-5, TM 1.0×10^-6 mol dm^-3"}, "[6]": {"assay": "Thermodynamic and conditional stability constants of the Zn^2+ complexes (potentiometric titration, program BEST)", "format": "physicochemical", "conditions": "25.0 ± 0.1° C., aqueous Me4 NNO3, I = 0.10 mol dm^-3", "method": "as §1, §2, §3, §4, §5, §6"}, "pM value, Gd^3+": {"assay": "pM value, Gd^3+", "conditions": "pH 7.4, TL 1.1×10^-5, TM 1.0×10^-6 mol dm^-3"}, "[7]": {"assay": "Thermodynamic and conditional stability constants of the Ca^2+ complexes (potentiometric titration, program BEST)", "format": "physicochemical", "conditions": "25.0 ± 0.1° C., aqueous Me4 NNO3, I = 0.10 mol dm^-3", "method": "as §1, §2, §3, §4, §5, §6"}, "pM value, Cu^2+": {"assay": "pM value, Cu^2+", "conditions": "pH 7.4, TL 1.1×10^-5, TM 1.0×10^-6 mol dm^-3"}, "pM value, Ca^2+": {"assay": "pM value, Ca^2+", "conditions": "pH 7.4, TL 1.1×10^-5, TM 1.0×10^-6 mol dm^-3"}, "[8]": {"assay": "Relaxivity R1 and its pH dependence"}, "[9]": {"conditions": "in vivo; cited from earlier work"}, "liver": {"test_system": "liver", "assay": "MR imaging, liver enhancement, healthy rat", "format": "in vivo", "conditions": "0.1 mmol/kg", "method": "(§7) Sodium pentobarbital was injected into the tail veins of […] rats (which have a healthy liver or tumorous liver) in a dosage of 40-50 mg/kg. The rats were placed on the head coil of an 1.5 T magnetic resonance imaging instrument. The T1-weighted (TR/Te, 15/6.1 msec) image was obtained by turbo field echo with the number of signal average. The field of view (FOV), the cross-sectional thickness, and the image matrix were 22 cm, 4 mm, and 128×256 respectively.\n(§8) Before injecting the contrast agent, a set of T1-weighted baseline images were taken. In the first five minutes, the images were taken at a very short time interval in order to evaluate the dynamic enhancement condition. Afterwards, the images were taken every 10, 20, 30, 40, 50, and 60 minutes in order to observe the continuous enhancement effect.\n(§9) By means of the computer software contained in the MRI instrument, the region of interest (ROI) can be determined by the operator. The signal intensities (SI) of liver, phantom, and kidney were measured. The enhancement percentage of an organ (liver or kidney) and the enhancement percentage of liver relative to kidney were calculated by the following equations. The statistical method used was Wilcoxon Signed Rank Test. [formula] [formula]"}, "kidney": {"test_system": "kidney", "assay": "MR imaging, kidney enhancement, healthy rat", "format": "in vivo", "conditions": "0.1 mmol/kg", "method": "as §7, §8, §9"}, "[10]": {"conditions": "25.0 ± 0.1° C., aqueous Me4 NNO3, I = 0.10 mol dm^-3"}}, "note": "Where “and” joins values, the source holds several entries; their conditions need not be identical. Equal entries are not always repeated. Where two headings read alike, the source gives them in different places."}
{"smiles": "O=C(O)CN(CCCN(CC(=O)O)CC(=O)O)CCCN(CC(=O)O)CC(=O)O", "note": "[TTRA, 3,7,11-tri(carboxymethyl)-3,7,11-triazatridecanedioic acid]", "values": [{"measurement": "basicity, Σ PKa", "setting": "[1]", "value": 29.85}, {"measurement": "pKa", "setting": "[1]; read-out: first protonation constant log K1^H, [HL]/[L][H]", "value": 10.6}, {"measurement": "pKa", "setting": "[1]; read-out: fourth protonation constant log K4^H, [H4 L]/[H3 L][H]", "value": 3.1}, {"measurement": "pKa", "setting": "[1]; read-out: second protonation constant log K2^H, [H2 L]/[HL][H]", "value": 9.12}, {"measurement": "pKa", "setting": "[1]; read-out: third protonation constant log K3^H, [H3 L]/[H2 L][H]", "value": 7}, {"measurement": "selectivity constant log K(Gd/Ca)", "setting": "[2]", "value": 2.37}, {"measurement": "maximum concentration of first protonated species [HL]^4-", "setting": "[3]", "value": 71.6, "unit": "%"}, {"measurement": "maximum concentration of fourth protonated species [H4 L]^-", "setting": "[3]", "value": 55.9, "unit": "%"}, {"measurement": "maximum concentration of second protonated species [H2 L]^3-", "setting": "[3]", "value": 86.5, "unit": "%"}, {"measurement": "maximum concentration of third protonated species [H3 L]^2-", "setting": "[3]", "value": 97.7, "unit": "%"}, {"measurement": "pH of maximum concentration of [H2 L]^3-", "setting": "[3]", "value": 8.1, "unit": "pH"}, {"measurement": "pH of maximum concentration of [H3 L]^2-", "setting": "[3]", "value": 5, "unit": "pH"}, {"measurement": "pH of maximum concentration of [H4 L]^-", "setting": "[3]", "value": 2.7, "unit": "pH"}, {"measurement": "pH of maximum concentration of [HL]^4-", "setting": "[3]", "value": 9.9, "unit": "pH"}, {"measurement": "pH range in which [H2 L]^3- is dominant", "setting": "[3]", "value": "7-9 pH"}, {"measurement": "pH range in which [H3 L]^2- is dominant", "setting": "[3]", "value": "3.5-7 pH"}, {"measurement": "pH range in which [H4 L]^- is dominant", "setting": "[3]", "value": "2-3.5 pH"}, {"measurement": "pH range in which [HL]^4- is dominant", "setting": "[3]", "value": "9.5-10.5 pH"}, {"measurement": "pH range in which deprotonated species [L]^5- is dominant", "setting": "[3]", "value": "greater than 12 pH"}, {"measurement": "pH range in which totally protonated species [H5 L] is dominant", "setting": "[3]", "value": "less than 2 pH"}, {"measurement": "log K [GdHL]/[GdL][H]", "setting": "[10]", "value": 5.95}, {"measurement": "log K [GdL]/[Gd][L]", "setting": "[10]", "value": 15.89}, {"measurement": "conditional stability constant log KGdL'", "setting": "pH 7.4", "value": 10.93}, {"measurement": "modified selectivity constant log K sel'", "setting": "[4]; pH 7.4, plasma concentrations of Ca^2+, Cu^2+ and Zn^2+", "value": 2.64}, {"measurement": "log K [CuHL]/[CuL][H]", "setting": "[5]", "value": 8.68}, {"measurement": "log K [CuL]/[Cu][L]", "setting": "[5]", "value": 17.92}, {"measurement": "pM (Zn^2+)", "setting": "pM value, Zn^2+", "value": 13.67}, {"measurement": "log K [ZnHL]/[ZnL][H]", "setting": "[6]", "value": 4.15}, {"measurement": "log K [ZnL]/[Zn][L]", "setting": "[6]", "value": 19.37}, {"measurement": "pM (Gd^3+)", "setting": "pM value, Gd^3+", "value": 9.80}, {"measurement": "log K [CaHL]/[CaL][H]", "setting": "[7]", "value": 8.02}, {"measurement": "log K [CaL]/[Ca][L]", "setting": "[7]", "value": 13.52}, {"measurement": "pM (Cu^2+)", "setting": "pM value, Cu^2+", "value": 13.12}, {"measurement": "pM (Ca^2+)", "setting": "pM value, Ca^2+", "value": 8.20}]}
{"smiles": "O=C([O-])CN(CCN(CC(=O)[O-])CC(=O)[O-])CCN(CC(=O)[O-])CC(=O)[O-].[Gd+3]", "note": "[[Gd(DTPA)]^2-]", "values": [{"measurement": "log K [GdL]/[Gd][L]", "setting": "[10]", "value": 22.46}, {"measurement": "conditional stability constant (log Kcond)", "setting": "pH 4", "value": 11.25}, {"measurement": "stability constant larger than that of [Gd(DTPA-BMA)] by", "setting": "pH 7.4", "value": 3.2}, {"measurement": "stability constant under physiological conditions (pH 7.4)", "setting": "pH 7.4", "value": 22.46}, {"measurement": "stability constant (log KML) larger than that of [Gd(DTPA-BMA)] by", "setting": "pH 11", "value": 5.5}, {"measurement": "modified selectivity constant log K sel'", "setting": "[4]; pH 7.4", "value": "7.07 and 7.04"}, {"measurement": "Relaxivity R1", "setting": "[8]; pH 7.5 ± 0.1", "value": "3.71 dm^3 mmol^-1 s^-1 and 3.71 ± 0.05 dm^3 mmol^-1 s^-1"}, {"measurement": "Relaxivity R1 (conclusion)", "setting": "[8]; pH not given", "value": 3.70, "unit": "dm^3 mmol^-1 s^-1"}, {"measurement": "LD50", "setting": "[9]", "value": 5.6, "unit": "mmol/kg"}, {"measurement": "time to maximum liver enhancement", "setting": "liver", "value": "≤ 1", "unit": "min"}, {"measurement": "liver enhancement after 30 minutes", "setting": "liver; 30 minutes", "value": "24±7", "unit": "%"}, {"measurement": "maximum liver enhancement", "setting": "liver; within 1 minute", "value": "57±9", "unit": "%"}, {"measurement": "time to maximum kidney enhancement", "setting": "kidney", "value": 1, "unit": "min"}, {"measurement": "kidney enhancement at 30 minutes", "setting": "kidney; 30 minutes", "value": "109±14", "unit": "%"}]}
